According to patent publication US20110288136A1, “FLAVIVIRUS INHIBITION BY SULTAMS AND RELATED COMPOUNDS” (Oregon Health & Science University, priority 2006, published 2011):
pEC50: −log10 of the molar value. Where “and” joins values, the source holds several entries; their conditions need not be identical. Identical values can stand only once.

Legend:
WNV E [1] = experiment: WNV E protein expression by immunofluorescence; assay type: cell-based, West Nile virus; details: 10 μg/mL, Vero cells, MOI 3, 24 h PI
Protocol: E protein expression was assayed by immunofluorescence and immunoblotting. Immunofluorescent and immunoblot detection of WNV E employed a commercially available anti-E monoclonal antibody (Chemicon Mab 8150). For immunofluorescence, Vero cells in DMEM, plus penicillin, streptomycin, and 2% FCS were mock-treated with DMSO, or treated with 10 μg/mL of inhibitor compound in DMSO, and infected with WNV at an MOI of 3. At 24 h PI, cells were processed for immunofluorescent detection of WNV E using a standard protocol at room temperature (Arvidson, B., Seeds, J., Webb, M., Finlay, L., and Barklis, E. (2003). Analysis of the retrovirus capsid interdomain linker region. Virology 308, 166-177). Briefly, washed cells were fixed 20 min in 3.7% formaldehyde in phosphate-buffered saline (PBS; 9.5 mM sodium potassium phosphate [pH 7.4], 137 mM NaCl, 2.7 mM KCl), washed, permeabilized 10 min in 0.2% Triton X-100 in PBS, washed, incubated 1 h with primary antibody diluted in DMEM plus 10% heat inactivated FCS (DMEM+FCS), washed, incubated 1 h with 1:1000 diluted Alexafluor594-conjugated goat anti-mouse secondary antibody (Molecular Probes; Invitrogen) in DMEM+FCS, washed, and mounted with PBS in 50% glycerol. Images were collected electronically on a Zeiss fluorescence microscope.
A handful of E protein-positive cells was observed over the faint background staining of the majority of cells.

WNV E [2] = experiment: WNV E protein expression by immunoblot; assay type: cell-based, West Nile virus; details: 5 μg/mL, Vero cells, MOI 5, 18 h PI
Protocol: For immunoblot detection of WNV E Vero cells on […] in 1 mL media were mock-treated with 5 μL DMSO or treated with 5 μL 1 mg/mL inhibitor compound in DMSO (final concentration 5 μg/mL inhibitor compound), and infected with WNV at an MOI of 5. At 18 h PI, media were removed, cells were collected in IPB (10 mM Tris-hydrochloride [pH 7.5], 150 mM NaCl, 1 mM ethylenediaminetetraacetic acid (EDTA), 0.1% sodium dodecyl sulfate [SDS], 0.5% sodium deoxycholate, 1% Triton X-100, 0.02% sodium azide), mixed with 1 volume of 2 x sample buffer (12.5 mM Tris-hydrochloride [pH 6.8], 2% SDS, 20% glycerol, 0.25% bromphenol blue) plus 0.1 volume of β-mercaptoethanol (β-Me). Samples were frozen at −20° C., heated 5 min to 90° C. and subjected to SDS-polyacrylamide gel electrophoresis (SDS-PAGE). After electrophoresis and electroblotting onto nitrocellulose filters, WNV E proteins were detected using a dilution of Mab 8150 as the primary antibody, an alkaline phosphatase-conjugated goat anti-mouse IgG secondary antibody (Promega), and a BCIP (5-bromo-4-chloro-3-indolyl phosphate) plus NBT (nitroblue tetrazolium)-mediated color reaction for visualization.
Immunoblotting was performed using a similar infection regime as in the immunofluorescence protocol. […] The WNV envelope protein was detected as a band at approximately 55 kDa in cells treated with DMSO, or with ineffective candidate inhibitors.

Vero cells [3] = experiment: MTS cytotoxicity assay (48 h); assay type: cell-based; details: highest drug concentrations employed
Protocol: (§1) This example describes an assay used to evaluate inhibitor antiviral activity. Inhibitor screening, virus yield reduction, and cytotoxicity assays all employed Vero cells and media containing 2% FCS. Compound libraries were assayed for WNV antiviral activity by screening for protection of infected Vero cells from WNV cytopathic effects (CPE). To do so, 10^4 Vero cells in 96 well plate wells were pretreated with a final concentration of 10 μg/mL drug in a total volume of 1 μL DMSO, infected with WNV at a multiplicity of infection (MOI) of 0.2, and screened for protection from CPE for 3-5 d post-infection (PI). Virus yield reduction assays were modified from previous protocols (Hirsch, A., Medigeshi, G., Meyers, H., DeFilippis, V., Fruh, K., Briese, T., Lipkin, W. I., and Nelson, J. (2005). The Src family kinase c-Yes is required for maturation of West Nile virus particles. J. Virol. 79, 11943-11951). Briefly, 10^4 Vero cells in 96 well plate wells were treated with compound dilutions in 1 μL DMSO, and infected with WNV at an MOI of 1-3. At 20-24 h PI, virus-containing media samples were titered by limiting dilution on fresh Vero cells. After 5 d, media were removed, and surviving cells were stained with 0.0375% crystal violet in ethanol. For cytotoxicity assays, 10^4 Vero cells per 96 well plate well were treated with compound dilutions, grown for 48 h, and subjected to colorimetric assays for dehydrogenase levels in metabolically active cells using MTS (3-[4,5-dimethylthiazol-2-yl)-5-[3-carboxymethyoxy phenyl]-2-[4-sulfophenyl]-2H-tetrazolium]; Promega) substrate. MTS cytotoxicity assay results were confirmed microscopically by scoring for Trypan Blue (0.2%) exclusion.
(§2) Several antiviral sultams were evaluated in using these methods. The results, including CC50 and EC50 values for WNV and JEV, were determined by MTS cytotoxicity assays and virus yield reduction assays and are recorded in Table 2.

[4] = MTS cytotoxicity assay (48 h); assay type: cell-based; details: African green monkey; MTS, Vero cells, 48 h
Protocol: as §1, §2

WNV NY99 = experiment: RT real-time PCR quantitation of WNV RNA; assay type: cell-based, West Nile virus; details: 5 μg/ml, MOI 5, 18 h PI
Protocol: Cells were DMSO mock-treated or treated with 5 μg/ml TYT-1, and then mock-infected or infected with WNV NY99 at an MOI of 5. At 18 h PI, RNAs were isolated from cells and subjected to reverse transcription (RT) real-time PCR quantitation of WNV RNA following the protocol of Briese et al. (Briese, T., Glass, W., and Lipkin, W. I. (2000). Detection of West Nile virus sequences in cerebrospinal fluid. Lancet 355, 1614-1615). […] Thus, inhibition of WNV NY99 replication by TYT-1 is accompanied by a reduction in viral protein and viral RNA expression levels.

WNV [5] = experiment: virus yield reduction assay, WNV; assay type: cell-based, West Nile virus; details: for pEC50: West Nile virus, Vero, read-out: WNV EC50
Protocol: as §1, §2

[6] = test system: West Nile virus (WNV; strain NY99); experiment: protection of mice from WNV lethality; assay type: in vivo, C57BL/6N mice; details: 400 pfu WNV s.c.
Protocol: This example describes the protective effect exerted by examples of the disclosed compounds against challenge with flaviviruses. […] With reference to FIG. 2A, on day 0, two groups of five C57BL/6N mice each were injected subcutaneously with 400 plaque forming units (pfu) of West Nile virus (WNV; strain NY99). Four hours prior to virus infection, and at two and four days post-infection (PI), one set of mice was injected i.p. with 0.02 ml DMSO per mouse (mock), while the other set was injected with 10 mg/kg TYT-1 in 0.02 ml DMSO. Survival was tracked for 21 days PI, and results are plotted as overall percentage survival for each group, versus the number of days PI. […] With reference to FIG. 2B, two groups of C57BL/6N mice were infected on day 0 with WNV as described above. Prior to infection, the 15 mice in the mock group were injected subcutaneously with 0.025 ml of DMSO, while the 10 mice in the experimental group were injected with 10 mg/kg TYT-1 in DMSO. Mice subsequently were injected i.p. with DMSO or TYT-1 at days 2, 4, 6, 8; and survival was tracked as above. […] The combined results of these two trial yielded a survival rate of 6/20 for mock treated mice and 11/15 for TYT-1 treated mice.

JEV = experiment: virus yield reduction assay, JEV; assay type: cell-based; details: Japanese encephalitis virus, Vero, read-out: JEV EC50
Protocol: as §1, §2

Vero cells [7] = experiment: MTS toxicity screening assay (3 d); assay type: cell-based; details: 10 μg/ml, subconfluent Vero cells
Description: TYT-1 was screened for toxicities using a colorimetric cell proliferation assay which employs MTS substrate to measure dehydrogenase activity in metabolically active cells (Barltrop, J. et al. (1991) 5-(3-carboxymethoxyphenyl)-2-(4,5-dimethylthiazoly)-3-(4-sulfophenyl)tetrazolium, inner salt (MTS) and related analogs of 3-(4,5-dimethyl thiazolyl)-2,5-diphenyltetrazolium bromide (mTT) reducing to purple water-soluble formazans as cell-viability indicators. Bioorg. & Med. Chem. Lett. 1, 611).
In this assay, subconfluent Vero cells were untreated, or treated 3 d with 10 μg/ml compound, and then subjected to MTS dehydrogenase assays, in which 490 nm absorbance values are proportional to cell viability signals. Results were plotted as the percentage of all treated compounds versus the percentage of the assay signal for untreated samples. Thus, nontoxic compounds give a signal approximately 100% that of the untreated signal.

WNV [8] = experiment: protection of infected Vero cells from WNV cytopathic effects; assay type: cell-based, West Nile virus; details: WNV 0.2 MOI
Protocol: as §1, with “For cytotoxicity assays, 10^4 Vero cells per 96 well plate well were treated with compound dilutions, grown for 48 h, and subjected to colorimetric assays for dehydrogenase levels in metabolically active cells using MTS (3-[4,5-dimethylthiazol-2-yl)-5-[3-carboxymethyoxy phenyl]-2-[4-sulfophenyl]-2H-tetrazolium]; Promega) substrate. MTS cytotoxicity assay results were confirmed microscopically by scoring for Trypan Blue (0.2%) exclusion.” left out

| Molecule | 50% cytotoxicity (Vero cells [3]) | CC50 at 48 h [4] [µM] | pEC50 (WNV [5]) | pEC50 (JEV) | further results |
| --- | --- | --- | --- | --- | --- |
| O=S1(=O)CS/C(=N\C(=S)N(c2ccccc2)c2ccccc2)N1c1ccccc1 [TYT-1, N′-(1,1-dioxido-2-phenyl-1,4,2-dithiazolidin-3-ylidene)-N,N-diphenylthiourea] | not obtained | > 70 | 6.15 | 5.15 | cells expressing high levels of WNV E (immunofluorescence) (WNV E [1]): very few cells; E protein signal (immunoblot) (WNV E [2]): essentially no E protein signal; WNV RNAs per cell (WNV NY99): 27 copies per cell; reduction of viral titers (WNV [5]; 1 μg/ml): at least 100 fold; reduction of WNV titers (WNV [5]; repeated tests): 100- to 10,000 fold and 100-10,000 fold; animals succumbed at 21 days ([6]; 10 mg/kg i.p. 4 h before infection and days 2, 4 PI, FIG. 2A): two out of five; survival rate, combined results of two trials ([6]; 10 mg/kg, 21 days PI): 11/15; MTS signal (Vero cells [7]): 136 % of untreated levels |
| CC(C)N(C(=S)/N=C1\SC(C)S(=O)(=O)N1C)C(C)C (stereo not shown) [TYT-2, (2,5-dimethyl-1,1-dioxido-1,4,2-dithiazolidin-3-ylidene)bis(1-methylethyl)thiourea] | – | 90 | 4.52 | 4.52 | – |
| CC(C)N(C(=S)/N=C1\SCS(=O)(=O)N1Cc1ccccc1)C(C)C [TYT-3, [1,1-dioxido-2-(phenylmethyl)-1,4,2-dithiazolidin-3-ylidene]bis(1-methylethyl)-thiourea] | not obtained | > 80 | 4.10 | 5.10 | – |
| O=S1(=O)CS/C(=N\C(=S)N(Cc2ccccc2)Cc2ccccc2)N1c1ccccc1 [TYT-4, (1,1-dioxido-2-phenyl-1,4,2-dithiazolidin-3-ylidene)-bis(phenylmethyl)-thiourea] | – | 65 | 4.66 | 4.19 | – |
| NC(=O)c1ncn([C@@H]2O[C@H](CO)[C@@H](O)[C@H]2O)n1 [ribavirin, reference compound] | – | – | – | – | reduction of WNV titers (WNV [5]; 100 μM): 10 fold; protection of cells from WNV challenge (WNV [8]; <100 μM): failed to protect cells |
| interferon alpha | – | – | – | – | protection of cells from WNV challenge (WNV [8]; 1000 IU/ml): failed to protect cells |
